How the values were obtained:
Type in all cases: in vivo
[1] = tested on: Sogatella furcifera Horvath; assay: Test on plant hoppers (spray on rice plants), white-backed rice planthopper; details: 48 h, read-out: Mortality (%) Whight bached rice planthopper
Protocol: (§1) A water dilution in a predetermined concentration of the active compound prepared as in Example 4 was sprayed onto rice plants, about 10 cm tall, grown in pots with a diameter of 12 cm in an amount of 10 ml per pot. The sprayed chemical was dried, and a wire net, 7 cm in diameter and 14 cm tall, was put over each of the pots. […] The mortality was then calculated.
(§2) In the same way as above, the mortality was calculated on Sogatella furcifera Horvath and organophosphorus-resistant Laodelphax striatellus Fallen.

[2] = tested on: Laodelphax striatellus Fallen; assay: Test on plant hoppers (spray on rice plants), small brown planthopper; details: 48 h, read-out: Mortality (%) Small brown planthopper
Protocol: as §1, §2

[3] = tested on: NiIaparvata lugens Stal; assay: Test on plant hoppers (spray on rice plants), brown rice planthopper; details: 48 h, read-out: Mortality (%) Brown rice planthopper
Protocol: as §1

Work on CCCCCCCCCCCCN1CC([N+](=O)[O-])=C(NC)N(Cc2ccc(Cl)nc2)C1 [Compound 41] yielded a mortality at 500 ppm [1] of 100%, a mortality at 500 ppm [2] of 100% and a mortality at 500 ppm [3] of 100%.
With CN1CCN2C(=O)CCC([N+](=O)[O-])=C12 [Compound C-1] the mortality at 500 ppm [1] was 0%, the mortality at 500 ppm [2] was 0% and the mortality at 500 ppm [3] was 0%.
Compound O=c1[nH]c(=O)n2c(c1[N+](=O)[O-])NCC2 [Compound C-2] has a mortality at 500 ppm [1] of 0%, a mortality at 500 ppm [2] of 0% and a mortality at 500 ppm [3] of 0%.
Work on CNC1=C([N+](=O)[O-])CN(C)CN1Cc1ccc(Cl)nc1 [Compound 8] yielded a mortality at 500 ppm [1] of 100%, a mortality at 500 ppm [2] of 100% and a mortality at 500 ppm [3] of 100%.

From patent EP0402717A1, “5-nitro-tetrahydropyrimidines and insecticides containing them for agricultural uses” (NIHON BAYER AGROCHEM K.K., priority 1989, dated 1990)
